Columns and labels:
[1] = test system: soluble epoxide hydrolase (sEH); assay: Fluorescent assay for mouse and human soluble epoxide hydrolase (CMNPC substrate); type: biochemical
Excerpt: Fluorescent Assay for Mouse and Human Soluble Epoxide Hydrolase
Recombinant mouse sEH (MsEH) and human sEH (HsEH) were produced in a baculovirus expression system as previously reported. Grant et al., J. Biol. Chem., 268:17628-17633 (1993); Beetham et al., Arch. Biochem. Biophys., 305:197-201 (1993). The expressed proteins were purified from cell lysate by affinity chromatography. Wixtrom et al., Anal. Biochem., 169:71-80 (1988). Protein concentration was quantified using the Pierce BCA assay using bovine serum albumin as the calibrating standard. The preparations were at least 97% pure as judged by SDS-PAGE and scanning densitometry. They contained no detectable esterase or glutathione transferase activity which can interfere with the assay. The assay was also evaluated with similar results in crude cell lysates or homogenate of tissues.
The IC50s for each inhibitor were determined according to the following procedure:
Cyano(2-methoxynaphthalen-6-yl)methyl (3-phenyloxiran-2-yl)methyl carbonate (CMNPC; Jones P. D. et. al.; Analytical Biochemistry 2005; 343: pp. 66-75)
Bis/Tris HCl 25 mM pH 7.0 containing 0.1 mg/mL of BSA (buffer A) CMNPC at 0.25 mM in DMSO.
Mother solution of enzyme in buffer A (Mouse sEH at 6 μg/mL and Human sEH at 5 μg/mL).
Inhibitor dissolved in DMSO at the appropriate concentration.
In a black 96 well plate, fill all the wells with 150 μL of buffer A.
Add 2 μL of DMSO in well A2 and A3, and then add 2 μL of inhibitor solution in A1 and A4 through A12.
Add 150 μL of buffer A in row A, then mix several time and transfer 150 μL to row B. Repeat this operation up to row H. The 150 μL removed from row H is discarded.
Add 20 μL of buffer A in column 1 and 2, then add 20 μL of enzyme solution to column 3 to 12.
Incubate the plate for 5 minutes in the plate reader at 30° C.
During incubation prepare the working solution of substrate by mixing 3.68 mL of buffer A (4×0.920 mL) with 266 μL (2×133 μL) of substrate solution).
At t=0, add 30 μL of working substrate solution with multi-channel pipette labeled “Briggs 303” and start the reading ([S]final: 5 μM).
Read with ex: 330 nm (20 nm) and em: 465 nm (20 nm) every 30 second for 10 minutes. The velocities are used to analyze and calculate the IC50s.

Row | SMILES | % Inhibition ([1]; Conc. 50 nM) [%] | other results
1 | O=C(Nc1ccc(C(F)(F)F)cc1)Nc1ccc(S(=O)(=O)c2ccccc2)cc1 [Compound 1, 1-(4-Benzenesulfonyl-phenyl)-3-(4-trifluoromethyl-phenyl)-urea] | 92 | –
2 | CS(=O)(=O)c1ccc(NC(=O)Nc2ccc(C(F)(F)F)cc2)cc1 [Compound 2, 1-(4-Methanesulfonyl-phenyl)-3-(4-trifluoromethyl-phenyl)-urea] | 79 | –
3 | CS(=O)(=O)c1cccc(NC(=O)Nc2ccc(C(F)(F)F)cc2)c1 [Compound 3, 1-(3-Methanesulfonyl-phenyl)-3-(4-trifluoromethyl-phenyl)-urea] | 88 | –
4 | O=C(Nc1ccccc1)Nc1cccc(S(=O)(=O)CCCN2CCOCC2)c1 [Compound 4, 1-[3-(3-Morpholin-4-yl-propane-1-sulfonyl)-phenyl]-3-phenyl-urea] | – | % Inhibition ([1]; Conc. 500 nM): 74%
5 | COc1ccc(S(=O)(=O)c2ccc(NC(=O)NC34CC5CC(CC(C5)C3)C4)cc2)nn1 [Compound 10, 1-Adamantan-1-yl-3-[4-(6-methoxy-pyridazine-3-sulfonyl)-phenyl]-urea] | – | melting point: 252 to 254 °C; % Inhibition ([1]; Conc. 2000 nM): 100%
